The molecules below were run against T1, full-length human Mineralocorticoid Receptor (MR) (Homo sapiens, UniProt P08235) (assay: human MR NH Pro assay (PathHunter Protein:Protein interaction assay, MR antagonism)). Details: PathHunter CHO-K1 cells that overexpress human MR; aldosterone (0.3 nM), 6 hours at 37° C.; antagonist mode; read-out: IC50 rating.
T1 construct: full-length human Mineralocorticoid Receptor (MR); host or cells: PathHunter CHO-K1 cells
T1 sequence (P08235 1-984): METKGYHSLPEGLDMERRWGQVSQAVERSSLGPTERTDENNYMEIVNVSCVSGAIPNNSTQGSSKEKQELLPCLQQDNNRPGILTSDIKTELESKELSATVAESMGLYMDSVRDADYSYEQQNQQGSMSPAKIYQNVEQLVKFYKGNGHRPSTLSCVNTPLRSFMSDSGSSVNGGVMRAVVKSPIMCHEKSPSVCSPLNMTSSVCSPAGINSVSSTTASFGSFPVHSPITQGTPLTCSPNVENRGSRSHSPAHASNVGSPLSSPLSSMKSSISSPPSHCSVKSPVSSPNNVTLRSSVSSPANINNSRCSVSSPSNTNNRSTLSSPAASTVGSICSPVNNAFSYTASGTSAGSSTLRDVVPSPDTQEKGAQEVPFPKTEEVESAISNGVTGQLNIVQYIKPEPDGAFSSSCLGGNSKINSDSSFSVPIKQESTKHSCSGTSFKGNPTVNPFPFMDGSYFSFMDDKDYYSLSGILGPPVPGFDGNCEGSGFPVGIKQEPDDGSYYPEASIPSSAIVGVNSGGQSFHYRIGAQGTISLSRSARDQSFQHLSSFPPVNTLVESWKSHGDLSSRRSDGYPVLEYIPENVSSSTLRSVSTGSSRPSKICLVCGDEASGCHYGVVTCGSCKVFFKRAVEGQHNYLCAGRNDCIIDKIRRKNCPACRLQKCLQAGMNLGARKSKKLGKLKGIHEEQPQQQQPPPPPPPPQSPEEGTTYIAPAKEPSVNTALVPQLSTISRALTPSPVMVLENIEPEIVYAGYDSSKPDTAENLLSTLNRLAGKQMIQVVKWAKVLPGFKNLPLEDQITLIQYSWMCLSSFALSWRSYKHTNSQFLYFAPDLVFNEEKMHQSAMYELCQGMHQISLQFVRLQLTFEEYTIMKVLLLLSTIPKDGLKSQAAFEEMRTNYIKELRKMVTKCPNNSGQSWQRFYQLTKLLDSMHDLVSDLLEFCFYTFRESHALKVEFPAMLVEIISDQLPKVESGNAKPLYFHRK
Assay type: cell-based
Description: The activity of the compounds of the present invention regarding mineralocorticoid receptor antagonism was evaluated using the following assay.
Assessment of Mr Potency in HMR NH Pro Assay
The human MR NH Pro assay is a commercially available PathHunter™ Protein:Protein interaction assay (DiscoveRx; http://www.discoverx.com/nhrs/prod-nhrs.php) that measures the ability of compounds to antagonize full-length human Mineralocorticoid Receptor (MR) binding to a coactivator peptide. PathHunter™ CHO—K1 cells that overexpress human MR (Cat #93-0456C2, Lot No: 09B0913) were cultured in growth media (F12K w/Glutamine and phenol red (Gibco 11765-047) supplemented with 10% HI FBS (Gibco 16000); 0.25 mg/ml Hygromycin in PBS (Invitrogen 10687-010, 50 mg/ml); 100 I.U./mL and 100 μg/mL Pen/Strep (Gibco 15140-122); 0.6 mg/mL Geneticin).
Compounds were assessed for MR antagonist activity by incubating the cells with a titrating dose of compound in F12K w/Glutamine and phenol red culture media (Invitrogen 11765-047) supplemented with 1% Charcoal/Dextran Treated FBS (Hyclone #SH30068.01) and aldosterone (0.3 nM) for 6 hours at 37° C. […] Growth Media: • F12K w/Glutamine and phenol red (Gibco 11765-047) • 10% HI FBS (Gibco 16000) • 0.25 mg/ml Hygromycin in PBS (Invitrogen 10687-010, 50 mg/ml) • 100 I.U./mL and 100 μg/mL Pen/Strep (Gibco 15140-122) • 0.6 mg/mL Geneticin (Gibco 10131, 50 mg/ml) • 2. Assay Media: • F12K w/Glutamine and phenol red (Invitrogen 11765-047) • 1% Charcoal/Dextran Treated FBS (Hyclone #SH30068.01) • 3. 3× PathHunter Detection Reagents (Cat#93-0001) (need ˜6 ml/plate). […] Control Agonist:Aldosterone:Sigma cat# A9477 • Prepare stock solution-10 μM in DMSO kept at −20° C. • for assay, dilute in assay media to 1.8 or 6 nM (6× of final concentration=about 0.3 nM to about 1.0 nM) • 5. Cell line: PathHunter CHO—K1 MR cells Cat #93-0456C2, Lot No: 09B0913, from operation liquid nitrogen stock. • 6. Control Antagonist:Spironolactone:Sigma #S-3378 and Eplerenone Sigma #107724-20-9 (10 mM stock concentration also prepared in DMSO and stored at −20° C.). • Methods: • Assay Set up and Calculations: • 1. Cells were grown in F12+FBS+Hygromycin+pen/strep+Genetin • 2. Cells were collected with 0.05% trypsin and the cell suspension was spun and resuspended in a volume of F12+1.5% CD-FBS and counted. • 3. The cells were resuspended to 4×10^5 cells/mL. • 4. Cells were (25 μL/well) added to the wells of a 384 well plate. • 5. The plate was then incubated at 37° C. over night in a humidified incubator with 5% CO2. • 6. Test compounds were titrated starting at 4.4 mM, 10-point titration in 1:3 dilution. • 7. Aldosterone was diluted in assay media to 1.8 nM or 6 nM from 10 μM stock (final concentration to be about 0.3 nM to about 1.0 nM). • Protocol for 384 Well Plate Format: 6 Hr Treatment: • 1. Plated 10K exponentially growing cells/well (25 μL) resuspended in assay media to each well using the Multidrop (Thermo Electron) (use white wall, clear bottom assay plates (Costar #3570) and incubate overnight at 37° C., 5% CO2. • 2. 0.25 μL 120× test compound (final DMSO concentration should be <1%) was added to each well n=2, 10 point titrations starting at 36.7 μM final concentration. • 3. 5 μL 6× agonist (final aldosterone concentration should be about 0.3 nM to about 1.0 nM) was added to all wells using the PlateMate Plus.
(ThermoFisher) (except those wells in columns 23 and 24) • 4. 5 μL of assay media was added to all wells in column 23 and 24. • 5. Plates were incubated 6 hrs at 37° C., 5% CO2. • 6. 15 μL 3× DiscoveRx detection reagent was added to each well. • 7. Plates were incubated for 1 hour at room temperature (plates stored in the dark). • 8. Plates were read on Envision (PerkinElmer) luminesence plate reader and analyzed using ADA.

| SMILES | IC50 [nM] |
| --- | --- |
| C[C@H](c1ccc(F)cc1)N1C(=O)O[C@](Cc2ccccc2)(c2nc3cc(F)c(F)cc3n2C)C1=O [Compound 37, (5R)-5-Benzyl-5-(5,6-difluoro-1-methyl-1H-benzimidazol-2-yl)-3-[(1R)-1-(4-fluorophenyl)ethyl]-1,3-oxazolidine-2,4-dione] | 100 to 500 |
| CC(C1CCC(F)(F)CC1)N1C(=O)O[C@](Cc2ccccc2)(c2nc3ccc(Cl)cc3[nH]2)C1=O (stereo partly drawn) [Compound 11, (5R)-5-Benzyl-5-(6-chloro-1H-benzimidazol-2-yl)-3-[1-(4,4-difluorocyclohexyl)ethyl]-1,3-oxazolidine-2,4-dione] | < 100 |
| CCS(=O)(=O)Nc1ccc2nc([C@@]3(Cc4ccccc4)OC(=O)N([C@H](C)c4ccc(F)cc4)C3=O)[nH]c2c1 [Compound 16, N-(2-{(5R)-5-Benzyl-3-[(1R)-1-(4-fluorophenyl)ethyl]-2,4-dioxo-1,3-oxazolidin-5-yl}-1H-benzimidazol-6-yl)ethanesulfonamide] | 100 to 500 |
| C[C@H](c1ccc(F)cc1)N1C(=O)O[C@](Cc2ccccc2)(c2nc3c(-c4cncnc4)cccc3[nH]2)C1=O [Compound 35, (5R)-5-Benzyl-3-[(1R)-1-(4-fluorophenyl)ethyl]-5-(4-pyrimidin-5-yl-1H-benzimidazol-2-yl)-1,3-oxazolidine-2,4-dione] | 100 to 500 |
| C[C@H](c1ccc(F)cc1)N1C(=O)O[C@](Cc2ccccc2)(c2nc3c(-c4ccncc4)cccc3[nH]2)C1=O [Compound 34, (5R)-5-Benzyl-3-[(1R)-1-(4-fluorophenyl)ethyl]-5-(4-pyridin-4-yl-1H-benzimidazol-2-yl)-1,3-oxazolidine-2,4-dione] | 100 to 500 |
| C[C@H](c1ccc(F)cc1)N1C(=O)O[C@](Cc2ccccc2)(c2nc3cc(-c4cc[nH]n4)ccc3[nH]2)C1=O [Compound 27, (5R)-5-Benzyl-3-[(1R)-1-(4-fluorophenyl)ethyl]-5-[5-(1H-pyrazol-5-yl)-1H-benzimidazol-2-yl]-1,3-oxazolidine-2,4-dione] | 100 to 500 |
| C[C@H](c1ccc(F)cc1)N1C(=O)O[C@](Cc2ccccc2)(c2nc3cc(-n4cnnn4)ccc3[nH]2)C1=O [Compound 6, (5R)-5-Benzyl-3-[(1R)-1-(4-fluorophenyl)ethyl]-5-[6-(1H-tetrazol-1-yl)-1H-benzimidazol-2-yl]-1,3-oxazolidine-2,4-dione] | 100 to 500 |

Further lines, results first:

| IC50 [nM] | SMILES |
| --- | --- |
| < 100 | C[C@H](c1ccc(F)cc1)N1C(=O)O[C@](Cc2ccccc2)(c2nc3cc(-c4cn[nH]c4)ccc3[nH]2)C1=O [Compound 26, (5R)-5-Benzyl-3-[(1R)-1-(4-fluorophenyl)ethyl]-5-[5-(1H-pyrazol-4-yl)-1H-benzimidazol-2-yl]-1,3-oxazolidine-2,4-dione] |
| 100 to 500 | COC(=O)c1ccc2nc([C@@]3(Cc4ccccc4)OC(=O)N([C@H](C)c4ccc(F)cc4)C3=O)[nH]c2c1 [Compound 5, Methyl 2-{(5R)-5-benzyl-3-[(1R)-1-(4-fluorophenyl)ethyl]-2,4-dioxo-1,3-oxazolidin-5-yl}-1H-benzimidazole-5-carboxylate] |
| < 100 | C[C@H](c1ccc(F)cc1)N1C(=O)O[C@](Cc2ccccc2)(c2nc3cc(-c4cncc(F)c4)ccc3[nH]2)C1=O [Compound 28, (5R)-5-Benzyl-3-[(1R)-1-(4-fluorophenyl)ethyl]-5-[5-(5-fluoro-pyridin-3-yl)-1H-benzimidazol-2-yl]-1,3-oxazolidine-2,4-dione] |
| 100 to 500 | C[C@H](c1ccc(F)cc1)N1C(=O)O[C@](Cc2ccccc2)(c2nc3c(-c4cnn(C)c4)cccc3[nH]2)C1=O [Compound 31, (5R)-5-Benzyl-3-[(1R)-1-(4-fluorophenyl)ethyl]-5-[4-(1-methyl-1H-pyrazol-4-yl)-1H-benzimidazol-2-yl]-1,3-oxazolidine-2,4-dione] |
| 100 to 500 | O=C1O[C@](Cc2ccccc2)(c2nc3ccc(Cl)cc3[nH]2)C(=O)N1[C@@H]1CCc2ccccc21 [Compound 13, (5R)-5-Benzyl-5-(5-chloro-1H-benzimidazol-2-yl)-3-[(1R)-2,3-dihydro-1H-inden-1-yl]-1,3-oxazolidine-2,4-dione] |

Reference: patent publication US9193717B2, “Mineralocorticoid receptor antagonists” (Merck Sharp & Dohme Corp., priority 2011, dated 2015)
